# Target: T1, human renin (Homo sapiens, UniProt P00797)
# T1 sequence (P00797 67-406): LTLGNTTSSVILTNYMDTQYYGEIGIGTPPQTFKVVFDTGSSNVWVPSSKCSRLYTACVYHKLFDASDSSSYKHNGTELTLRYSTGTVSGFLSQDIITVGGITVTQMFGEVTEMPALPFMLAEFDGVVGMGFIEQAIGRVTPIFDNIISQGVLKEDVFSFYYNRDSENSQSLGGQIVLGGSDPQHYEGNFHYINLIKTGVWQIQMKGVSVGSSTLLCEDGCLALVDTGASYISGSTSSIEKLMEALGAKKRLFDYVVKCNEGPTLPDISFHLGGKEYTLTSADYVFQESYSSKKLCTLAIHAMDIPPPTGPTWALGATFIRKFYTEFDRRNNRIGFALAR
# Test: Determination of renin IC50 by tGFP FRET assay
# Format: biochemical
# Conditions: Human recombinant renin, tandem GFP substrate 650 nM, 60 min incubation with compound, pH 7.4, 11-point curve
# Excerpt: Determination of Renin IC50 by tGFP FRET Assay
# The tGFP FRET (fluorescence resonance energy transfer) assay utilizes a tandem GFP substrate (60 kDa, Discovery Technologies) containing nine amino acid recognition sequences for human renin flanked by two GFP proteins. The assay is used to determine the ability of a compound to act as an inhibitor of renin enzymatic activity by determination of that concentration of test compound that inhibits by 50% (IC50) the ability of renin to cleave the tandem GFP substrate. The IC50 values are determined over an 11-point curve at concentrations of 100 μM to 1 pM. Each compound concentration used to construct the curve was dependent on renin inhibitor potency. For example, subnanomolar IC50 values were determined over an 11-point curve at concentrations of 10 μM to 1 pM. All other IC50 values were determined over an 11-point curve at concentrations of 100 μM to 0.0065 μM. The concentrations were achieved by diluting a 9.1 nM stock of Human recombinant renin in the appropriate amount of buffer containing 50 mM HEPES, 1 mM EDTA, 1% PEG (8000 MW), 1 mM DTT, 0.1% BSA, pH 7.4 to achieve the final concentration of 50.4 μIU. The tGFP substrate stock solution of 43 μM was diluted with the appropriate amount of the above buffer to obtain the final concentration of 650 nM. In addition, 1 μl of the compound is diluted in dimethylsulfoxide (DMSO) to represent an […] log scale (5% final). The SR renin and compound are added to a 384 capacity plate by an automated robot (BIOMEK). The plate is incubated for 60 minutes; upon completion the tGFP substrate is added.
# The IC50 is determined by monitoring the increase in […] at 432/432 nm excitation, 530/475 nm emission with a cutoff at 515/455 nm, in a fluorometric plate reader.
row,Structure (SMILES),IC50 [nM]
1,"COc1ccccc1COCCCOc1ccc(N2C(=O)CNC[C@@H]2COCc2ccc(Br)cc2)cc1 [Example 30, (6R)-6-(4-bromobenzyloxymethyl)-1-{4-[3-(2-methoxybenzyloxy)-propoxy]-phenyl}-piperazin-2-one]",> 1000
2,"COc1ccccc1COCCCOc1ccc(N2C(=O)CNC[C@@H]2COc2ccc3c(c2)N(CCOC(C)=O)CCC3)cc1 [Example 31, acetic acid 2-[7-(1-{4-[3-(2-methoxybenzyloxy)-propoxy]-phenyl}-6-oxopiperazin-(2R)-ylmethoxy)-3,4-dihydro-2H-quinolin-1-yl]-ethyl ester]",0.42
3,"COc1ccccc1COCCCOc1ccc(N2CCNC[C@@H]2COc2ccc3ccccc3c2)cc1 [Example 32, (2R)-1-{4-[3-(2-methoxybenzyloxy)-propoxy]-phenyl}-2-(naphthalen-2-yloxymethyl)-piperazine]",153
4,"COc1ccc(COC[C@H]2CNCCN2c2ccc(OCCCOCc3ccccc3OC)cc2)cc1 [Example 33, (2R)-2-(4-methoxybenzyloxymethyl)-1-{4-[3-(2-methoxy-benzyloxy)-propoxy]-phenyl}-piperazine]",3990
5,"COc1ccc(COC[C@H]2CNCCN2c2ccc(OCCCOCc3ccccc3)cc2)cc1 [Example 34, (2R)-1-[4-(3-benzyloxypropoxy)-phenyl]-2-(4-methoxybenzyloxymethyl)-piperazine]",10900
6,"c1ccc(COc2ccc(N3CCNC[C@@H]3COc3ccc4ccccc4c3)cc2)cc1 [Example 35, (2R)-1-(4-benzyloxyphenyl)-2-(naphthalen-2-yloxymethyl)-piperazine]",> 1000
7,"COc1ccc(COC[C@H]2CNCCN2c2ccc(OCc3ccccc3)cc2)cc1 [Example 36, (2R)-1-(4-benzyloxyphenyl)-2-(4-methoxybenzyloxymethyl)-piperazine]",> 1000
8,"COc1ccccc1COCCCOc1ccc(N2C(=O)CNC[C@@H]2COc2ccc3ccccc3c2)cc1 [Example 37, (6R)-1-{4-[3-(2-methoxybenzyloxy)-propoxy]-phenyl}-6-(naphthalen-2-yloxymethyl)-piperazin-2-one]",54
9,"c1ccc(COCCCOc2ccc(N3CCNC[C@@H]3COc3ccc4ccccc4c3)cc2)cc1 [Example 38, (2R)-1-[4-(3-benzyloxypropoxy)-phenyl]-2-(naphthalen-2-yloxymethyl)-piperazine]",1420
10,"COc1ccccc1COCCCOc1ccc(N2C(=O)CNC[C@@H]2COc2ccc3ccccc3c2)cc1F [Example 39, (6R)-1-{3-fluoro-4-[3-(2-methoxybenzyloxy)-propoxy]-phenyl}-6-(naphthalen-2-yloxymethyl)-piperazin-2-one]",152
11,"COc1ccccc1COCCCOc1ccc(N2CCNC[C@@H]2COc2ccc3c(c2)CCCC3)cc1 [Example 40, (2R)-1-{4-[3-(2-methoxybenzyloxy)-propoxy]-phenyl}-2-(5,6,7,8-tetrahydronaphthalen-2-yloxymethyl)-piperazine]",440
12,"COc1ccccc1COCCCOc1ccc(N2C(=O)CNC[C@@H]2COc2ccc3cccnc3c2)cc1 [Example 41, (6R)-1-{4-[3-(2-methoxybenzyloxy)-propoxy]-phenyl}-6-(quinolin-7-yloxymethyl)-piperazin-2-one]",822
13,"COc1ccccc1COCCCOc1ccc(N2C(=O)CNC[C@@H]2COc2ccc3c(c2)NCCC3)cc1 [Example 42, (6R)-1-{4-[3-(2-methoxybenzyloxy)-propoxy]-phenyl}-6-(1,2,3,4-tetrahydroquinolin-7-yloxymethyl)-piperazin-2-one]",124
14,"COc1ccccc1COCCCOc1c(F)cc(N2C(=O)CNC[C@@H]2COc2ccc3ccccc3c2)cc1F [Example 43, (6R)-1-{3,5-difluoro-4-[3-(2-methoxybenzyloxy)-propoxy]-phenyl}-6-(naphthalen-2-yloxymethyl)-piperazin-2-one]",883
